Test results published in patent USRE42890E1, “Furazanobenzimidazoles” (Basilea Pharmaceutica AG, priority 2003, dated 2011).

How the values were obtained:
[1] = test system: Jurkat; assay: MTS proliferation assay, Jurkat; format: cell-based, human; conditions: 72 h incubation, read-out: MTS proliferation assay IC 50 Jurkat
How it was run: (§1)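 Absorbance at 492 nm after 3 h with MTS reagent gave proliferation. This followed 72 h compound exposure (final 0.3, 1, 3, 10 μM) at 37 °C and 7.5% CO2. Cells had been plated 24 h earlier in complete RPMI-1640 with 5% or 10% FCS.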

[2] = test system: Jily; assay: MTS proliferation assay, Jily; format: cell-based; conditions: 72 h incubation, read-out: MTS proliferation assay IC 50 Jily
How it was run: (§2)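 Antiproliferative read-out by MTS (3 h, A492) after 72 h compound exposure at final 0.3–10 μM (four concentrations). Cells were plated 24 h earlier in RPMI-1640 containing 5% or 10% FCS, cultured at 37 °C with 7.5% CO2.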

[3] = test system: HT1080; assay: MTS proliferation assay, HT1080; format: cell-based, human; conditions: HT1080, 72 h incubation; read-out: MTS proliferation assay IC 50 HT1080
How it was run: as §1

[4] = test system: HeLa; assay: MTS proliferation assay, HeLa; format: cell-based, human; conditions: 72 h incubation, read-out: MTS proliferation assay IC 50 HeLa
How it was run: as §1

[5] = test system: MRC5; assay: MTS proliferation assay, MRC5; format: cell-based; conditions: MRC5, 72 h incubation; read-out: MTS proliferation assay IC 50 MRC5
How it was run: as §2

[6] = test system: adherent cells or suspension cells; assay: Hoechst 33342 nuclear staining (fraction of apoptotic nuclei); format: cell-based; design: key: 0 relating to no activity; 1 relating to weak activity comprising less than 70% of the cells; score 2 relating to strong activity comprising more than 70% of the cells

| Compound | IC50 [1] | IC50 [3] | IC50 [4] | IC50 [2] | IC50 [5] | Hoechst 33342 nuclear staining score ([6]; HeLa, conc 0.01 μm) | Hoechst 33342 nuclear staining score ([6]; HeLa, conc 0.1 μm) | Hoechst 33342 nuclear staining score ([6]; HeLa, conc 1 μm) | Hoechst 33342 nuclear staining score ([6]; Jily, conc 0.01 μm) | Hoechst 33342 nuclear staining score ([6]; Jily, conc 0.1 μm) | Hoechst 33342 nuclear staining score ([6]; Jily, conc 1 μm) | Hoechst 33342 nuclear staining score ([6]; Jurkat, conc 0.01 μm) | Hoechst 33342 nuclear staining score ([6]; Jurkat, conc 0.1 μm) | Hoechst 33342 nuclear staining score ([6]; Jurkat, conc 1 μm) | Hoechst 33342 nuclear staining score ([6]; MRC5, conc 0.01 μm) | Hoechst 33342 nuclear staining score ([6]; MRC5, conc 0.1 μm) | Hoechst 33342 nuclear staining score ([6]; MRC5, conc 1 μm) | Hoechst 33342 nuclear staining score ([6]; PBLs, conc 0.01 μm) | Hoechst 33342 nuclear staining score ([6]; PBLs, conc 0.1 μm) | Hoechst 33342 nuclear staining score ([6]; PBLs, conc 1 μm) | also measured |
| --- | --- | --- | --- | --- | --- | --- | --- | --- | --- | --- | --- | --- | --- | --- | --- | --- | --- | --- | --- | --- | --- |
| Cl.Nc1ccc(C(=O)Cn2c(-c3nonc3N)nc3ccccc32)cc1 [Example 51] | 10 to 100 nM | 10 to 100 nM | 10 to 100 nM | 10 to 100 nM | 10 to 100 nM | 0 | 2 (score 2 relating to strong activity comprising more than 70% of the cells) | 2 (score 2 relating to strong activity comprising more than 70% of the cells) | 0 | 2 (score 2 relating to strong activity comprising more than 70% of the cells) | 2 (score 2 relating to strong activity comprising more than 70% of the cells) | 1 (1 relating to weak activity comprising less than 70% of the cells) | 2 (score 2 relating to strong activity comprising more than 70% of the cells) | 2 (score 2 relating to strong activity comprising more than 70% of the cells) | 0 | 2 (score 2 relating to strong activity comprising more than 70% of the cells) | 2 (score 2 relating to strong activity comprising more than 70% of the cells) | 0 | 0 | 0 | Hoechst 33342 nuclear staining score ([6]; H460, conc 0.01 μm): 0; Hoechst 33342 nuclear staining score ([6]; H460, conc 0.1 μm): 2 (score 2 relating to strong activity comprising more than 70% of the cells); Hoechst 33342 nuclear staining score ([6]; H460, conc 1 μm): 2 (score 2 relating to strong activity comprising more than 70% of the cells) |
| Nc1nonc1-c1nc2ccccc2n1CC(=O)c1ccc(C(F)(F)F)cc1 [Example 43] | 100 to 1000 nM | 100 to 1000 nM | 100 to 1000 nM | 100 to 1000 nM | 100 to 1000 nM | 0 | 0 | 1 (1 relating to weak activity comprising less than 70% of the cells) | 0 | 0 | 1 (1 relating to weak activity comprising less than 70% of the cells) | 0 | 0 | 2 (score 2 relating to strong activity comprising more than 70% of the cells) | 0 | 0 | 1 (1 relating to weak activity comprising less than 70% of the cells) | 0 | 0 | 0 |  |
| CC(=O)Nc1ccc(C(=O)Cn2c(-c3nonc3N)nc3ccccc32)cc1 [Example 60] | 100 to 1000 nM | 100 to 1000 nM | 100 to 1000 nM | 100 to 1000 nM | 100 to 1000 nM | 0 | 0 | 1 (1 relating to weak activity comprising less than 70% of the cells) | 0 | 0 | 2 (score 2 relating to strong activity comprising more than 70% of the cells) | 0 | 0 | 2 (score 2 relating to strong activity comprising more than 70% of the cells) | 0 | 0 | 2 (score 2 relating to strong activity comprising more than 70% of the cells) | 0 | 0 | 0 | Hoechst 33342 nuclear staining score ([6]; H460, conc 0.01 μm): 0; Hoechst 33342 nuclear staining score ([6]; H460, conc 0.1 μm): 0; Hoechst 33342 nuclear staining score ([6]; H460, conc 1 μm): 0 |

The next lines start with results.

| IC50 [1] | IC50 [3] | IC50 [4] | Compound | IC50 [2] | IC50 [5] | Hoechst 33342 nuclear staining score ([6]; HeLa, conc 0.01 μm) | Hoechst 33342 nuclear staining score ([6]; HeLa, conc 0.1 μm) | Hoechst 33342 nuclear staining score ([6]; HeLa, conc 1 μm) | Hoechst 33342 nuclear staining score ([6]; Jily, conc 0.01 μm) | Hoechst 33342 nuclear staining score ([6]; Jily, conc 0.1 μm) | Hoechst 33342 nuclear staining score ([6]; Jily, conc 1 μm) | Hoechst 33342 nuclear staining score ([6]; Jurkat, conc 0.01 μm) | Hoechst 33342 nuclear staining score ([6]; Jurkat, conc 0.1 μm) | Hoechst 33342 nuclear staining score ([6]; Jurkat, conc 1 μm) | Hoechst 33342 nuclear staining score ([6]; MRC5, conc 0.01 μm) | Hoechst 33342 nuclear staining score ([6]; MRC5, conc 0.1 μm) | Hoechst 33342 nuclear staining score ([6]; MRC5, conc 1 μm) | Hoechst 33342 nuclear staining score ([6]; PBLs, conc 0.01 μm) | Hoechst 33342 nuclear staining score ([6]; PBLs, conc 0.1 μm) | Hoechst 33342 nuclear staining score ([6]; PBLs, conc 1 μm) | also measured |
| --- | --- | --- | --- | --- | --- | --- | --- | --- | --- | --- | --- | --- | --- | --- | --- | --- | --- | --- | --- | --- | --- |
| 100 to 1000 nM | 100 to 1000 nM | 100 to 1000 nM | COc1ccc(C(=O)Cn2c(-c3nonc3N)nc3ccccc32)cc1OC [Example 76] | 10 to 100 nM | 100 to 1000 nM | 0 | 0 | 2 (score 2 relating to strong activity comprising more than 70% of the cells) | 0 | 2 (score 2 relating to strong activity comprising more than 70% of the cells) | 2 (score 2 relating to strong activity comprising more than 70% of the cells) | 0 | 2 (score 2 relating to strong activity comprising more than 70% of the cells) | 2 (score 2 relating to strong activity comprising more than 70% of the cells) | 0 | 0 |  | 0 | 0 | 0 | Hoechst 33342 nuclear staining score ([6]; H460, conc 0.01 μm): 0; Hoechst 33342 nuclear staining score ([6]; H460, conc 0.1 μm): 1 (1 relating to weak activity comprising less than 70% of the cells); Hoechst 33342 nuclear staining score ([6]; H460, conc 1 μm): 2 (score 2 relating to strong activity comprising more than 70% of the cells) |
| 100 to 1000 nM | 100 to 1000 nM | 100 to 1000 nM | Nc1nonc1-c1nc2ccccc2n1COc1ccc(C=O)cc1 [Example 96] | 100 to 1000 nM | 100 to 1000 nM | 0 | 0 | 2 (score 2 relating to strong activity comprising more than 70% of the cells) | 0 | 0 | 2 (score 2 relating to strong activity comprising more than 70% of the cells) | 0 | 0 | 2 (score 2 relating to strong activity comprising more than 70% of the cells) | 0 | 0 | 0 | 0 | 0 | 0 | Hoechst 33342 nuclear staining score ([6]; H460, conc 0.01 μm): 0; Hoechst 33342 nuclear staining score ([6]; H460, conc 0.1 μm): 0; Hoechst 33342 nuclear staining score ([6]; H460, conc 1 μm): 1 (1 relating to weak activity comprising less than 70% of the cells) |
| 100 to 1000 nM | 100 to 1000 nM | 100 to 1000 nM | Nc1nonc1-c1nc2ccccc2n1COc1ccc(C(F)(F)F)cc1 [Example 91] | 100 to 1000 nM | 100 to 1000 nM | 0 | 0 | 0 | 0 | 0 | 2 (score 2 relating to strong activity comprising more than 70% of the cells) | 0 | 0 | 2 (score 2 relating to strong activity comprising more than 70% of the cells) | 0 | 0 | 0 | 0 | 0 | 0 |  |
